Assay results reported in ChEMBL document CHEMBL5647692, “The novel dual PI3K/mTOR inhibitor NVP-BGT226 displays cytotoxic activity in both normoxic and hypoxic hepatocarcinoma cells” (Oncotarget, 2015).
pIC50: −log10 of the molar value. Calls of active or inactive are those of the source. The calls are words filed in the database; no cut-off is given here.

How the values were obtained:
SNU-475 [1] = test: Cytotoxicity against human SNU-475 cells assessed as reduction in cell viability incubated for 24 hrs under normoxia condition by MTT assay; type: functional, cell-based
SNU-475 [2] = test: Induction of autophagy in human SNU-475 cells assessed as reduction in cytotoxicity at 0.5 uM incubated for 24 hrs by MTT assay; type: functional, cell-based
[3] = Inhibition of PI3K/Akt/mTOR signaling pathway in human SNU-475 cells assessed as reduction in phosphorylation of mTORC1 substrate S6 incubated for 1 hr under normoxia condition by Western blotting analysis; type: cell-based; details: dose 0.25-1 µM
SNU-449 [4] = test: Induction of apoptosis in human SNU-449 cells assessed as viable cells at 1.5 uM incubated for 24 hrs by Annexin-V/7-AAD staining based muse cell analyzer method (reference value: 90.07 %); type: functional; details: read-out: Activity
[5] = Inhibition of PI3K/Akt/mTOR signaling pathway in human SNU-475 cells assessed as reduction in phosphorylation of Akt incubated for 1 hr under normoxia condition by Western blotting analysis; type: cell-based; details: dose 0.25-1 µM
Mahlavu [6] = test: Cytotoxicity against human Mahlavu cells assessed as reduction in cell viability at 0.5 to 5 uM incubated for 24 hrs by MTT assay; type: functional, cell-based; details: dose 0.5-5 µM
[7] = Inhibition of PI3K/Akt/mTOR signaling pathway in human Mahlavu cells assessed as reduction in phosphorylation of mTORC1 substrate S6 incubated for 1 hr under normoxia condition by Western blotting analysis; type: cell-based; details: dose 0.25-1 µM
Hep 3B2 [8] = test: Induction of cell cycle arrest in human Hep3B cells assessed as increase in accumulation of cells in G0/G1 phase incubated at 0.01 to 0.1 uM for 24 hrs by propidium iodide staining based muse cell analysis; type: functional; details: dose 0.01-0.1 µM
Mahlavu [9] = test: Induction of autophagy in human Mahlavu cells assessed as reduction in SQSTM1/p62 level by Western blot analysis; type: functional, cell-based; details: dose 0.1-0.5 µM
[10] = Inhibition of PI3K/Akt/mTOR signaling pathway in human Hep3B cells assessed as reduction in phosphorylation of mTORC1 substrate S6 incubated for 1 hr under normoxia condition by Western blotting analysis; type: cell-based; details: dose 0.25-1 µM
SNU-475 [11] = test: Induction of autophagy in human SNU-475 cells assessed as upregulation of LC3A/B II level by Western blot analysis; type: functional, cell-based; details: dose 0.1-0.5 µM
SNU-475 [12] = test: Induction of autophagy in human SNU-475 cells assessed as increase expression of LC3 A/B II at 0.5 uM incubated for 24 hrs in presence of chloroquine under hypoxia condition by Western blot analysis; type: functional, cell-based
Mahlavu [13] = test: Induction of autophagy in human Mahlavu cells assessed as reduction in cytotoxicity at 0.5 uM incubated for 24 hrs by MTT assay; type: functional, cell-based
SNU-475 [14] = test: Induction of autophagy in human SNU-475 cells assessed as increase in LC3I to LC3II conversion at 0.5 uM incubated for 24 hrs under hypoxia condition by Western blot analysis; type: functional, cell-based
[15] = Inhibition of PI3K/Akt/mTOR signaling pathway in human HepG2 cells assessed as reduction in phosphorylation of mTORC1 substrate S6 incubated for 1 hr under normoxia condition by Western blotting analysis; type: cell-based; details: dose 0.25-1 µM
SNU-475 [16] = test: Induction of autophagy in human SNU-475 cells assessed as increased expression of LC3A/B II level incubated for 24 hrs under hypoxia condition by Western blot analysis; type: functional, cell-based; details: dose 0.1-0.5 µM
Mahlavu [17] = test: Cytotoxicity against human Mahlavu cells assessed as reduction in cell viability incubated for 24 hrs under normoxia condition by MTT assay; type: functional, cell-based
Hep 3B2 [18] = test: Induction of apoptosis in human Hep3B cells incubated for 24 hrs by Annexin-V/7-AAD staining based muse cell analyzer method; type: functional; details: dose 0.01-0.5 µM
Hep 3B2 [19] = test: Cytotoxicity against human Hep3B cells assessed as reduction in cell viability incubated for 24 hrs under hypoxia condition by MTT assay; type: functional, cell-based
HepG2 [20] = test: Cytotoxicity against human HepG2 cells assessed as reduction in cell viability at 0.5 to 5 uM incubated for 24 hrs by MTT assay; type: functional, cell-based; details: dose 0.5-5 µM
Hep 3B2 [21] = test: Induction of cell cycle arrest in human Hep3B cells assessed as decrease in accumulation of cells in G2/M phase incubated at 0.01 to 0.1 uM for 24 hrs by propidium iodide staining based muse cell analysis; type: functional; details: dose 0.01-0.1 µM
Mahlavu [22] = test: Induction of cell cycle arrest in human Mahlavu cells assessed as increase in accumulation of cells in G0/G1 phase incubated at 0.01 to 0.1 uM for 24 hrs by propidium iodide staining based muse cell analysis; type: functional; details: dose 0.01-0.1 µM
SNU-449 [23] = test: Induction of apoptosis in human SNU-449 cells assessed as late apoptotic cells at IC50 concentration incubated for 24 hrs in presence of Z-VAD-fmk by Annexin-V/7-AAD staining based muse cell analyzer method (reference value: 5.03 %); type: functional
SNU-475 [24] = test: Induction of apoptosis in human SNU-475 cells assessed as cleaved PARP level at 0.5 uM incubated for 24 hrs by Western blotting analysis; type: functional, cell-based
Hep 3B2 [25] = test: Induction of cell cycle arrest in human Hep3B cells assessed as decrease in accumulation of cells in S phase incubated at 0.01 to 0.1 uM for 24 hrs by propidium iodide staining based muse cell analysis; type: functional; details: dose 0.01-0.1 µM
Hep 3B2 [26] = test: Anti-tumor activity against human Hep3B cells assessed as reduction of VEGF level incubated for 24 hrs under hypoxia condition by Western blot analysis; type: functional, cell-based; details: dose 0.01-0.1 µM
Mahlavu [27] = test: Anti-tumor activity against human Mahlavu cells assessed as reduction of VEGF level incubated for 24 hrs under hypoxia condition by Western blot analysis; type: functional, cell-based; details: dose 0.01-0.1 µM
Mahlavu [28] = test: Induction of apoptosis in human Mahlavu cells assessed as early apoptotic cells at IC50 incubated for 24 hrs in presence of Z-VAD-fmk by Annexin-V/7-AAD staining based muse cell analyzer method (reference value: 6.57 %); type: functional
HepG2 [29] = test: Cytotoxicity against human HepG2 cells assessed as reduction in cell viability incubated for 48 hrs by MTT assay; type: functional, cell-based; details: HepG2, 48 h
Mahlavu [30] = test: Cytotoxicity against human Mahlavu cells assessed as reduction in cell viability at 0.5 uM incubated for 24 hrs in presence of 3-Methyladenine under hypoxia condition by MTT assay; type: functional, cell-based
SNU-475 [31] = test: Cytotoxicity against human SNU-475 cells assessed as reduction in cell viability incubated for 48 hrs by MTT assay; type: functional, cell-based; details: SNU-475, 48 h
SNU-449 [32] = test: Cytotoxicity against human SNU-449 cells assessed as reduction in cell viability at 0.5 to 5 uM incubated for 24 hrs by MTT assay; type: functional, cell-based; details: dose 0.5-5 µM
HepG2 [33] = test: Cytotoxicity against human HepG2 cells assessed as reduction in cell viability at 0.5 uM incubated for 24 hrs in presence of 3-Methyladenine by MTT assay; type: functional, cell-based
SNU-475 [34] = test: Induction of autophagy in human SNU-475 cells assessed as increase in lipidation of LC3A/B II level at 0.5 uM incubated for 24 hrs in presence of chloroquine by Western blot analysis; type: functional, cell-based
Hep 3B2 [35] = test: Cytotoxicity against human Hep3B cells assessed as reduction in cell viability at 0.5 to 5 uM incubated for 24 hrs by MTT assay; type: functional, cell-based; details: dose 0.5-5 µM
Mahlavu [36] = test: Induction of apoptosis in human Mahlavu cells assessed as necrotic cells at IC50 incubated for 24 hrs in presence of Z-VAD-fmk by Annexin-V/7-AAD staining based muse cell analyzer method (reference value: 0.67 %); type: functional

## COc1ccc(-c2ccc3ncc4c(c3c2)n(-c2ccc(N3CCNCC3)c(C(F)(F)F)c2)c(=O)n4C)cn1 [BGT-226 FREE BASE]
SNU-475 [1]
  Activity: Active
SNU-475 [2]
  Activity: Active
[3]
  inhibition: Dose-Dependent Effect
SNU-449 [4]
  viability at 1.5 µM: 48.6%
[5]
  inhibition: Dose-Dependent Effect
Mahlavu [6]
  Activity: Active
[7]
  inhibition: Dose-Dependent Effect
Hep 3B2 [8]
  Activity: Active
Mahlavu [9]
  Activity: Dose-Dependent Effect
[10]
  inhibition: Dose-Dependent Effect
SNU-475 [11]
  Activity: Dose-Dependent Effect
SNU-475 [12]
  Activity: Active
Mahlavu [13]
  Activity: Active
SNU-475 [14]
  Activity: Dose-Dependent Effect
[15]
  inhibition: Dose-Dependent Effect
SNU-475 [16]
  Activity: Dose-Dependent Effect
Mahlavu [17]
  Activity: Active
Hep 3B2 [18]
  Activity: Dose-Dependent Effect
Hep 3B2 [19]
  Activity: Active
HepG2 [20]
  Activity: Active
Hep 3B2 [21]
  Activity: Active
Mahlavu [22]
  Activity: Active
SNU-449 [23]
  Activity: 4.05%
SNU-475 [24]
  Activity: Active
Hep 3B2 [25]
  Activity: Active
Hep 3B2 [26]
  Activity: Dose-Dependent Effect
Mahlavu [27]
  Activity: Dose-Dependent Effect
Mahlavu [28]
  Activity: 11.97%
HepG2 [29]
  pIC50: 5.87
Mahlavu [30]
  Activity: Active
SNU-475 [31]
  pIC50: 6.00
SNU-449 [32]
  Activity: Active
HepG2 [33]
  Activity: Active
SNU-475 [34]
  Activity: Active
Hep 3B2 [35]
  Activity: Active
Mahlavu [36]
  Activity: 0.54%
